Test results published in patent US8993721B2, “Peptides for targeting apoptotic cells and uses thereof” (Kyungpook National University Industry-Academic Cooperation …, priority 2008, dated 2015).
Entries after “also recorded” stand apart in the source; their conditions may differ. Where no end group is shown, it is not given here.

Tests used:
[1] = tested on: aorta of arteriosclerotic Ldlr(−/−) mouse; experiment: Molecular imaging of arteriosclerosis (Example 5); type: in vivo
Protocol: An arteriosclerotic animal model was established by feeding mice, in which low-density lipoprotein (LDL) receptor was deficient (Ldlr(−/−)) genetically, with a high-cholesterol diet for 8 weeks. At the tail vein of the arteriosclerotic mouse and normal mouse, the peptide having an amino sequence represented by SEQ ID NO: 1 (ApoPep-1) or a control peptide, labeled with Cy7.5 NIR fluorescence, was injected at a final concentration of 50 μM, under isoflurane anesthesia. Two hours later, with the mouse anesthetized, in vivo images of the NIR fluorescence were obtained using an Optix exPlore instrument. Following the in vivo imaging, NIR fluorescence was measured […] after isolating the aorta.

[2] = tested on: heart of myocardial ischemic rat (ischemia/reperfusion model); experiment: Molecular imaging of myocardial ischemia (Example 7); type: in vivo; conditions: Cy7.5-labeled peptide i.v. 2 hours after reperfusion; imaged 2 hours after injection
Protocol: A myocardial ischemia model was established by occluding the coronary artery of a rat, followed by reperfusion (ischemia/reperfusion model). For the operation, a rat was anesthetized by intra-abdominally injecting 10 mg of phenobarbital and, followed by endobronchial intubation, a ventilator was connected. Thereafter, the thorax was cut open to expose the heart. The left anterior descending coronary artery was occluded for 30 minutes using a suture and, then, the blood was allowed to circulate. For a control group (Sham), the same operation was performed, except for the occlusion. Two hours after the reperfusion, the peptide having an amino sequence represented by SEQ ID NO: 1 (ApoPep-1), labeled with Cy7.5 NIR fluorescence, was intravenously injected to the rats of the myocardial ischemia group and the control group. Two hours after the peptide injection, NIR images of the heart portion were obtained. Then, NIR images were obtained after isolating the heart.

[3] = tested on: brain of stroke rat (middle cerebral artery occlusion/reperfusion); experiment: Molecular imaging of stroke (Example 6); type: in vivo
Protocol: A stroke model was established by occluding the left middle cerebral artery of a rat for 2 hours, followed by reperfusion. Two hours after the reperfusion, the peptide having an amino sequence represented by SEQ ID NO: 1 (ApoPep-1) and a control peptide, labeled with Cy7.5 NIR fluorescence, was intravenously injected at a final concentration of 50 μM to the stroke rat and a normal rat through the tail vein, under isoflurane anesthesia. One and three hours after the intravenous injection, NIR images of the head portion were obtained. Further, NIR fluorescence images of the brains of the rats of the 3 hour group were obtained.

[4] = tested on: apoptotic cells in A549 tumor tissue xenotransplanted in nude mouse; experiment: Histological analysis of tumor targeting (Example 8); type: in vivo; conditions: fluorescein-labeled peptide, tail vein, 50 μM
Protocol: All animal experiments were performed in accordance with the guideline of the Institutional Animal Care and Use Committee. For tumor xenotransplantation, human lung cancer cells (A549, 1×10^6 cells) suspended in RMPI-1640 medium was subcutaneously injected at the right upper or lower limb of a 6-week-old male BALB/c nude mouse (Hyochang Science). Then, 3 to 4 weeks were given for the tumor to grow to a size of 0.5 to 1 cm. The A549 cell line used in the experiment was cultured in RMPI-1640 medium containing 10% fetal bovine serum (FBS) in which antibiotics (penicillin and streptomycin) were included. Subculturing was performed every 3 or 4 days.
The peptides used in the present invention were fluorescein-attached form at the N-terminal. They were synthesized according to the standard Fmoc technique and then isolated through HPLC. The peptide synthesis was performed by an expertise company (Peptron). […]
For histological analysis, the mouse was anesthetized and the abdomen was cut open. […] After treatment with a mounting solution containing the nuclear stain 4′,6-diamidino-2-phenylindole (DAPI) (Invitrogen), images of the cells were obtained under a fluorescence microscope (Zeiss).

apoptotic A549 cells = experiment: Competitive inhibition of binding to apoptotic cells by annexin V treatment (Example 9-2); type: cell-based, human; conditions: annexin V 1000 μM pre-treatment
Protocol: In order to further investigate the binding properties of the polypeptide of the present invention (ApoPep-2) to apoptotic cells, competitive inhibition by annexin V was measured. To this end, first, apoptotic A549 cells were pre-treated with annexin V, not labeled with fluorescence, at concentrations of 0, 500 and 1000 μM. Then, after reacting the cells with fluorescence-labeled annexin V under the same condition as described in Example <9-1>, the binding of the cells was observed under a fluorescence microscope.
Further, apoptotic A549 cells were pre-treated with annexin V, not labeled with fluorescence, at a concentration of 1000 μM. Then, after reacting the cells with fluorescence-labeled peptide under the same condition as described in Example <9-1>, the binding of the cells was observed under a fluorescence microscope.

[5] = tested on: trail-treated apoptotic MDA-MB231 cells; experiment: Microscopic observation of binding of the peptide to apoptotic cells, MDA-MB231 (Example 9-1); type: cell-based
Protocol: Cells were cultured in chamber slide (Nunc) and treated with 50 μM etoposide (Sigma) for 16 hours (A549 cells) or 50 ng/ml trail (R&D Systems) for 16 hours (MDA-MB231 cells) to induce apoptosis. The cells were cultured in RMPI-1640 medium (A549 cells) or DMEM-High (MDA-MB231 cells) containing antibiotics (penicillin and streptomycin) and 10% FBS. All the cells were sub-cultured every 3 or 4 days. The apoptosis-induced apoptotic cells were washed with PBS and blocked with 1% BSA at 37° C. for 30 minutes. Then, the cells were reacted with 10 μM of the peptide labeled with fluorescein, at 4° C. for 1 hour. After washing, the cells were reacted with an annexin V reaction buffer containing Alexa594-labeled annexin V (Invitrogen) at room temperature for 15 minutes. The cells were washed with PBS and then fixed with 4% paraformaldehyde for 5 minutes. After treatment with a mounting solution containing the DAPI nuclear stain, images of the cells were obtained under a fluorescence microscope.

[6] = Cy7.5-labeled peptide 50 μM i.v.

## CQRPPR (also: fluorescein or Cy7.5 label) [ApoPep-1, peptide CQRPPR screened for macrophages; used fluorescein- or Cy7.5-labeled]
[1]; Cy7.5-labeled peptide 50 μM
  NIR fluorescence imaged from the back, normal mouse: almost nonexistent
[1]; Cy7.5-labeled peptide 50 μM, tail vein, two hours later
  NIR fluorescence imaged from the back, arteriosclerotic mouse, compared with control peptide: stronger NIR fluorescence
[1]; arteriosclerotic mouse
  NIR fluorescence after exposing the aorta by cutting the abdomen open, compared with control peptide: much stronger
[1]; arteriosclerotic mouse, back image (FIG. 8B)
  intensity of the fluorescence relative to the control peptide: about two times that of the control peptide
[2]
  NIR fluorescence of the heart portion, myocardial ischemic rat versus control group (Sham) rat: much stronger NIR fluorescence
[3]; 3 hour group, left middle cerebral artery occluded
  fluorescence of isolated brain of stroke rat: fluorescence was observed at the left hemisphere
[3]; [6]
  NIR fluorescence at the head portion of the normal rat: almost nonexistent
  NIR fluorescence at the head portion of the stroke rat at 3 hours: very strong fluorescence
[3]; Cy7.5-labeled peptide 50 μM i.v., 2 hours after reperfusion
  NIR fluorescence at the head portion of the stroke rat at 1 hour: NIR fluorescence was observed

## CSVAPR (also: fluorescein or Cy7.5 label) [ApoPep-2, peptide CSVAPR screened for endothelial cells; used fluorescein- or Cy7.5-labeled]
[4]; 2 hours
  binding to cells stained by TUNEL (apoptotic cells) in the tumor tissue: target the tumor tissue and mainly bind to the tumor cells undergoing apoptosis; also recorded: binds to the cells stained by TUNEL
[4]; 2 hours circulation
  peptide fluorescence observed in the tumor tissue: observed in the tumor tissue
Apoptotic A549 cells
  binding of fluorescence-labeled peptide after pre-treatment with unlabeled annexin V: not inhibited
[5]; 50 ng/ml trail 16 hours, 10 μM fluorescein-labeled peptide 4° C. 1 hour, Alexa594-annexin V
  labeling of trail-treated apoptotic MDA-MB231 cells: strongly bound to the apoptotic cells; also recorded: labeling was observed
[5]; 10 μM peptide 4° C. 1 hour, Alexa594-annexin V
  labeling of MDA-MB231 cells not treated with trail: hardly bound to the untreated cells; also recorded: no labeling was observed
[5]; trail-treated apoptotic cells
  location of peptide binding relative to annexin V binding (merge), MDA-MB231: at the same locations
